Source: patent publication US5001118A, “Method for preventing senescence and increasing bone mass” (priority 1986, dated 1991)

Experiments:
[1] = Acute toxicity, oral administration; type: in vivo; conditions: mouse, in vivo, po
Experimental: (§1) A test solution was prepared by dissolving the present substance, 24R,25-(OH)2 -D3, in ethanol and again dissolving the resultant ethanol solution in triglyceride ester of a fatty acid of 8 to 10 carbon atoms so that the ethanol concentration is 2%. Then, the test solution was orally administered (p.o.) at a dose of 100 mg/kg to a test group of 10 ICR type male mice (each weighing 25±3 g). For two weeks, the mice were kept under observation for sign of toxication. […] They were then sacrificed and subjected to biochemical blood inspection, anatomical observation, and histopathological inspection.

[2] = test system: ICR type male mice; experiment: Acute toxicity, oral administration; type: in vivo; conditions: 100 mg/kg p.o.
Experimental: as §1

[3] = test system: ICR type mice; experiment: Histopathological inspection of internal organs (haematoxylin eosine); type: in vivo, mouse (ICR type); conditions: male and female ICR mice, 10, 100, and 1,000 μg/kg.day orally
Experimental: Solutions obtained by dissolving the present substance, 24R,25-(OH)2 -D3 in a prescribed concentration in triglyceride of a fatty acid of 8 to 10 carbon atoms containing 1% of ethanol were administered respectively, orally, forcedly and daily to three male-groups and three female-groups of ICR type mice 5 weeks old at dosages of 10, 100, and 1,000 μg/kg.day. The results are compared below with respect to the following items with those obtained of the male- and female-groups using only the solvent without the present substance.
The following internal organs were fixed with 10% formalin, tinted with haematoxylin eosine dye, and subjected to histopathological inspection.
Brain, heart, lung, liver, kidney, adrenal gland, spleen, pancreas, thyroid gland, pituitary gland, thymus, mesentery lymphoglandia, testis, ovary, uterus, stomach, small intestines (jejunum, ileum, and duodenum), large intestines (colon and caecum), orb, submaxillary gland, urinary bladder, dorsal skin, muscle, sternum, sternal medulla, femur, and femoral medulla.

Which LD50 at 336 h [1] does the source give for C=C1CC[C@H](O)C/C1=C/C=C1\CCC[C@]2(C)[C@@H]([C@H](C)CC[C@@H](O)C(C)(C)O)CC[C@@H]12 [24R,25-(OH)2 -D3] here?
Its LD50 at 336 h is at least 100 mg/kg.

And the sign of abnormality ([2]; 10 ICR male mice, two weeks)?
Its sign of abnormality is “no sign of abnormality”.

And the survival ([2]; 10 ICR male mice, two weeks)?
Its survival is “All of the mice survived”.

What about the “biochemical blood inspection, anatomical observation, and histopathological inspection vs control” value ([2]; ICR male mice, after two weeks) of the same compound?
The value was “not different at all”.

What about the “histopathological inspection of internal organs” value [3] of the same compound?
The value was “no discernible abnormality”.
